Patent US20240252493A1, “Apelin Receptor Modulators for Treating Age-Related Muscle Conditions” (BIOAGE LABS, INC., priority 2021, published 2024)
“Also recorded” adds a separate entry of the source.

Experiments:
pAMPK = test: Western blot of pAMPK in heart after oral BGE-105; assay type: in vivo; conditions: mice, oral 45 mg/kg, vs vehicle
Description: (§1) Administration of an apelin receptor agonist can induce the phosphorylation and activation of AMPK in heart tissue. Tissue samples were lysed using T-PER tissue protein extraction reagent (Thermo Fisher Scientific #78510) containing EDTA and protease/phosphatase inhibitors on the Omni Bead Ruptor 12 Homogenizer. Total protein was extracted then quantified using Pierce™ BCA Protein Assay Kit. Loaded equal amounts of total protein per lane on a 4-12% SDS-PAGE gel and transferred to PVDF membrane. Membranes were blocked and blotted with anti-phospho-AMPKα-Thr172 (Cell Signaling Technology, CST #2535), total-AMPKα (CST #2532), anti-phospho-Akt-SeR^473 (CST #4060), total-Akt (CST #4685), anti-phospho-ERK-1/2-Thr202/Tyr204 of Erk1 and Thr185/Tyr187 of Erk2 (CST #4370), total-ERK-1/2 (CST #9107) or anti-APLNR receptor (abcam, ab214369) antibodies. Band intensities were normalized to loading control anti-β-Actin (CST #3700) or anti-GAPDH (abcam, ab181602) antibodies. Immunoreactive proteins were detected using SuperSignal™ West Femto Substrate (Thermo Fisher Scientific #34095) and quantified by Image Lab™ software (Bio-Rad Laboratories, Inc.).
(§2) Apelin can induce the phosphorylation of Akt in the soleus muscle and improve glucose homeostasis. […]

phosphorylation of Akt = test: Western blot of Akt phosphorylation in rat tibialis anterior; assay type: in vivo; conditions: rats
Description: as §1
(§3) The difference between tissues was conserved among rodent species: In rats, as in mice, apelin receptor levels in rat tissue were 2-fold higher in heart than in soleus, FIGS. 5A-5B. […]

[1] = test system: Pax7, MyoD, MyoG, Myf5, MyHC3, and MyHC8; test: CTX-induced muscle injury: transcript levels of regeneration genes; assay type: in vivo, mice
Protocol: Impairment of muscle regeneration can contribute to age-related muscle weakness. This is particularly true in aged individuals who engage in physical activity. Exercise-induced muscle hypertrophy is linked to the capacity of muscle stem cells to be activated and promote regeneration. […] Mice were i.p injected with buprenorphine (Centravet, 0.1 mg/kg) 30 minutes before injury and the day after. The day of the injury, mice were anesthetized with isoflurane inhalation and hindlimbs were shaved. Then, 10 μM of cardiotoxin (CTX, Latoxan, #L8102) was injected through two injections of 25 μl into the left tibialis muscle and two injections of 50 μl into the left gastrocnemius muscle, using a 22-gauge needle (Hamilton). Mice were euthanized 3 and 7 days after injury by cervical dislocation, muscles (PBS- and CTX-injected) were cut in two parts, one being snap frozen into liquid nitrogen for total RNA extraction and the other part being embedded into OCT, frozen in isopentane cooled with liquid nitrogen for histological analysis.

[2] = test system: Twenty-month-old male C57/B16 mice; test: Disuse-induced muscle atrophy (hindlimb casting) in aged mice; assay type: in vivo
Description: Limb immobilization causes a loss of gross skeletal muscle mass accompanied by a significant decrease in apelin transcript levels.
One week into the treatment, mice underwent modified hindlimb casting on one limb. Mice were anesthetized with isoflurane inhalation and the hindlimb wiped with povidone-iodine, then ethanol, and loosely wrapped in surgical gauze. A custom-made plastic immobilization device was placed on the limb, with the foot in full extension, so as to result in the maximal in vivo unloading of the plantarflexor group. The device was fixed to the hindlimb using Vetbond and the animal returned to its cage. After 3 weeks of treatment following casting, mice were euthanized 1 hour after the final ZT1 dose, and tissues isolated, weighed, then flash frozen in liquid nitrogen for subsequent western blot analysis.

[3] = pH of BGE-105 dissolved in deionized water; assay type: physicochemical; conditions: 275 ug/mL in deionized water
Protocol: BGE-105 was administered in drinking water consumed ad libitum. The compound is mildly acidic when dissolved, resulting in a pH 4.5 solution. The deionized water was adjusted to pH 8.5 by adding 1N NaOH. The vehicle control group consumed water (ad libitum) of the same pH without drug.

79-HMC = test: Proliferation of immortalized human muscle cells, older donor; assay type: cell-based; conditions: for cell proliferation (measured at day 4): older subject cells
Protocol: Immortalized human cells from male donors (25-HMC) […] (79-HMC) are grown from the proliferation stage until they become 80% confluent, differentiate, and become myotubes. […] Early proliferation markers (Pax7, Myf5, MyoD, and MyoG were assessed via RT-PCR (FIG. 8D to 8K)

apelin receptor = test: Apelin receptor protein levels in rat TA after chronic dosing; assay type: in vivo; conditions: rats, 5 consecutive days oral, 50 mg/kg QD and 200 mg/kg BID
Description: as §1, §3

[4] = test system: immobilized human muscles; test: Bed rest study in healthy older adult humans; assay type: in vivo; conditions: healthy older adults, 10 days bed rest, 200 mg a day
Description: Two groups of healthy older adult humans (e.g., N=10 per group) who are moderately active remain in bed continuously for 10 days, except for toileting, and they consume a eucaloric diet providing the recommended dietary allowance for protein (0.8 g/kg of protein per day). […] Measurements before and after bed rest include muscle function and protein synthesis.

rats = conditions: cited from earlier work
pAkt = test: Western blot of pAkt in soleus after oral BGE-105; assay type: in vivo; conditions: mice, oral 45 mg/kg, vs vehicle
Description: as §1, §2

[5] = gastrocnemius, aged mice, 3 or 7 days, apelin 0.5 μmol/kg/day, BGE-105 50 and 200 mg/kg/day
[6] = gastrocnemius, young mice, 3 or 7 days, apelin 0.5 μmol/kg/day, BGE-105 50 and 200 mg/kg/day
[7] = tibialis anterior, aged mice, 7 days, apelin 0.5 μmol/kg/day, BGE-105 50 and 200 mg/kg/day
[8] = tibialis, young mice, 3 or 7 days, apelin 0.5 μmol/kg/day, BGE-105 50 and 200 mg/kg/day
[9] = 20-month-old immobilized mice, 50 mg/kg BID, 50 mg/kg

For `COc1cccc(OC)c1-n1c(NS(=O)(=O)[C@@H](C)[C@H](C)c2ncc(C)cn2)nnc1-c1cncc(C)c1` [BGE-105, (2S,3R)—N-(4-(2,6-dimethoxyphenyl)-5-(5-methyl-3-pyridinyl)-4H-1,2,4-triazol-3-yl)-3-(5-methyl-2-pyrimidinyl)-2-butanesulfonamide], the “pAMPK levels in the heart” value (pAMPK) was “increased levels; also recorded: significantly higher”, the “phosphorylation of Akt in TA” value (phosphorylation of Akt; oral 50 mg/kg BID, 5 consecutive days) was “strongest response” and the “phosphorylation of Akt in TA” value (phosphorylation of Akt; oral dosing 5 consecutive days, across doses) was “dose-dependent manner”. For the same compound, the “expression levels of genes involved in muscle regeneration (Pax7, MyoD, MyoG, Myf5, MyHC3, MyHC8)” value ([1]; aged (18-month-old) mice, tibialis, 7 days after CTX, vs PBS) was “significantly higher levels of several mRNA transcripts; also recorded: dramatically higher”, the “effect on regeneration gene expression in gastrocnemius compared with tibialis” value ([1]; aged mice, gastrocnemius) was “not as prominent” and the Pax7 transcript levels ([1]; gastrocnemius, aged (18-month-old) mice, 3 or 7 days, apelin 0.5 μmol/kg/day, BGE-105 50 and 200 mg/kg/day) was “no significant change”. The MyoD transcript levels ([1]; gastrocnemius, aged mice, 3 and 7 days, apelin 0.5 μmol/kg/day, BGE-105 50 and 200 mg/kg/day) was “significant increase”, the Myf5 transcript levels [1, 5] was “no significant change” and the MyoG transcript levels [1, 5] was “no significant change”. The MyHC8 transcript levels ([1]; gastrocnemius, aged mice, any time point, any treatment) was “does not show a change”, the MyHC3 transcript levels ([1]; gastrocnemius, aged mice, only at 7 days, BGE-105 200 mg/kg/day) was “significant increase” and the Pax7 transcript levels ([1]; gastrocnemius, young (3-month-old) mice, 3 or 7 days, apelin 0.5 μmol/kg/day, BGE-105 50 and 200 mg/kg/day) was “no change”. The Myf5 transcript levels [1, 6] was “no change”, the MyoD transcript levels [1, 6] was “no change” and the MyoG transcript levels [1, 6] was “no change”. For the same compound, the MyHC8 transcript levels ([1]; gastrocnemius, young mice, 3 days, apelin 0.5 μmol/kg/day, BGE-105 50 and 200 mg/kg/day) was “non-significant increase”, the MyHC3 transcript levels ([1]; gastrocnemius, young mice, only 3 days, BGE-105 50 mg/kg/day) was “increase” and the Pax7 transcript levels ([1]; tibialis anterior, aged (18-month-old) mice, 7 days post cardiotoxin, apelin 0.5 μmol/kg/day, BGE-105 50 and 200 mg/kg/day) was “significant increase”. For the same compound, the MyoD transcript levels ([1]; tibialis anterior, aged mice, 3 and 7 days post cardiotoxin, apelin 0.5 μmol/kg/day, BGE-105 50 and 200 mg/kg/day) was “significant increase”, the MyHC3 transcript levels [1, 7] was “significant increase” and the Myf5 transcript levels [1, 7] was “significant change”. The MyoG transcript levels [1, 7] was “significant increase”, the Pax7 transcript levels ([1]; tibialis, young (3-month-old) mice, 3 or 7 days, apelin 0.5 μmol/kg/day, BGE-105 50 and 200 mg/kg/day) was “no change” and the MyHC3 transcript levels [1, 8] was “no significant change”. For the same compound, the MyHC8 transcript levels [1, 8] was “no significant change”, the Myf5 transcript levels [1, 8] was “no difference” and the MyoD transcript levels [1, 8] was “no significant increase”. For the same compound, the MyoG transcript levels [1, 8] was “no difference”, the “effect on regeneration gene expression in young mice” value ([1]; young (3-month-old) mice) was “not as effective” and the “extensor digitorum longus (EDL) muscle weight / atrophy” value [2, 9] was “did not measurably atrophy; also recorded: near significant improvement in muscle weight; also recorded: near significant decrease in the percent atrophy”. The gastrocnemius atrophy [2, 9] was “less effective; also recorded: no improvement”, the “soleus muscle weight / atrophy” value [2, 9] was “modest rescue in atrophy; also recorded: near significant improvement in muscle weight; also recorded: marginal improvement in the percent atrophy” and the “tibialis anterior muscle weight / percent atrophy vs vehicle” value [2, 9] was “significant improvement in maintaining muscle weight; also recorded: significant decrease in the percent atrophy”. The “decrease in wet weight of tibialis anterior (TA) muscle” value ([2]; casted limb, 50 mg/kg BID P.O., 21 days immobilization) was 3%, the “muscle atrophy / loss of muscle mass induced by immobilization” value ([2]; immobilized aged mice, orally dosed, vs vehicle) was “significantly reduced muscle atrophy; also recorded: protected against some loss of muscle mass” and the “pH of solution when dissolved” value [3] was 4.5. The “cell proliferation, short-term treatment” value (79-HMC; aged donor cells, day 0 to day 4 post seeding) was “significant increase of cell proliferation”, the “cell proliferation (measured at day 4)” value (79-HMC; 5 nM) was “significant increase in cell proliferation” and the “cell proliferation (measured at day 4)” value (79-HMC; 50 nM) was “increase”. For the same compound, the “apelin receptor levels in the TA” value (apelin receptor) was “modest but non-significant decrease”, the “muscle atrophy in immobilized human muscles” value [4] was “prevent or attenuate muscle atrophy” and the cardiovascular response (rats) was “induces a cardiovascular response”. The “pAkt levels in the soleus” value (pAkt) was “increased levels; also recorded: marginally significant increase”.
